Laboratory results as given in PubChem BioAssay AID330 (DTP/NCI, 2004).
Several values for one entry are separate records, joined by “and”; a condition that tells them apart may be missing. Equal entries are not always repeated. Inconclusive results and toxic doses are left out.

Test system: P388 leukemia ip, CD2F1 mice, survival T/C
Assay: NCI In Vivo Anticancer Drug Screen. Data for tumor model P388 Leukemia (intraperitoneal) in CD2F1 (CDF1) mice
Conditions: endpoint: median survival time, higher = longer survival
Method in brief: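 Mice carrying the transplanted tumor received test compound or vehicle. Survival was recorded in each group, and the value is the treated-group measurement divided by that of the vehicle-treated control group.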

[1] = dose: 60.0 mg/kg/injection, schedule: Q01DX005 (ip), vehicle: Klucel (hydroxypropylcellulose) (HPC)
[2] = dose: 60.0 mg/kg/injection, schedule: Q01DX005 (ip), vehicle: saline
[3] = dose: 120.0 mg/kg/injection, schedule: Q01DX005 (ip), vehicle: Klucel (hydroxypropylcellulose) (HPC)
[4] = dose: 120.0 mg/kg/injection, schedule: Q01DX005 (ip), vehicle: saline
[5] = dose: 240.0 mg/kg/injection, schedule: Q01DX005 (ip), vehicle: Klucel (hydroxypropylcellulose) (HPC)
[6] = dose: 60.0 mg/kg/injection, schedule: Q01DX005 (ip), vehicle: saline with Tween-80
[7] = dose: 120.0 mg/kg/injection, schedule: Q01DX005 (ip), vehicle: saline with Tween-80
[8] = dose: 50.0 mg/kg/injection, schedule: Q01DX005 (ip), vehicle: Klucel (hydroxypropylcellulose) (HPC)
[9] = dose: 100.0 mg/kg/injection, schedule: Q01DX005 (ip), vehicle: Klucel (hydroxypropylcellulose) (HPC)
[10] = dose: 200.0 mg/kg/injection, schedule: Q01DX005 (ip), vehicle: Klucel (hydroxypropylcellulose) (HPC)
[11] = dose: 50.0 mg/kg/injection, schedule: Q01DX009 (ip), vehicle: Klucel (hydroxypropylcellulose) (HPC)
[12] = dose: 100.0 mg/kg/injection, schedule: Q01DX009 (ip), vehicle: Klucel (hydroxypropylcellulose) (HPC)
[13] = dose: 200.0 mg/kg/injection, schedule: Q01DX009 (ip), vehicle: Klucel (hydroxypropylcellulose) (HPC)
[14] = dose: 50.0 mg/kg/injection, schedule: Q01DX005 (ip), vehicle: saline with Tween-80
[15] = dose: 100.0 mg/kg/injection, schedule: Q01DX005 (ip), vehicle: saline with Tween-80
[16] = dose: 200.0 mg/kg/injection, schedule: Q01DX005 (ip), vehicle: saline with Tween-80

## NS(=O)(=O)c1ccc(N=NC2C(=O)N(c3ccccc3)C(=S)N(c3ccccc3)C2=O)cc1
[1]
  T/C: 100 % of control
[2]
  T/C: 106 % of control
[3]
  T/C: 100 % of control
[4]
  T/C: 95 % of control
[5]
  T/C: 91 % of control
dose: 240.0 mg/kg/injection, schedule: Q01DX005 (ip), vehicle: saline
  T/C: 92 % of control

## Clc1nc(SC2=NCCN2)c2[nH]cnc2n1
dose: 5.0 mg/kg/injection, schedule: Q01DX009 (ip), vehicle: saline with Tween-80
  T/C: 100 % of control and 92 % of control
dose: 10.0 mg/kg/injection, schedule: Q01DX009 (ip), vehicle: saline with Tween-80
  T/C: 104 % of control and 113 % of control
dose: 20.0 mg/kg/injection, schedule: Q01DX009 (ip), vehicle: saline with Tween-80
  T/C: 105 % of control
dose: 40.0 mg/kg/injection, schedule: Q01DX009 (ip), vehicle: saline with Tween-80
  T/C: 100 % of control

## Cc1cc2[nH]c3c(C#N)c(O)c(C)c(=O)n3c2cc1C
[6]
  T/C: 100 % of control
[7]
  T/C: 100 % of control
dose: 240.0 mg/kg/injection, schedule: Q01DX005 (ip), vehicle: saline with Tween-80
  T/C: 100 % of control

## COc1cc(C)c(C2NC(=O)c3ccccc3N2)cc1C (centres undefined)
[8]
  T/C: 104 % of control and 111 % of control
[9]
  T/C: 103 % of control and 112 % of control
dose: 172.0 mg/kg/injection, schedule: Q01DX005 (ip), vehicle: Klucel (hydroxypropylcellulose) (HPC)
  T/C: 109 % of control
[10]
  T/C: 112 % of control and 121 % of control
dose: 288.0 mg/kg/injection, schedule: Q01DX005 (ip), vehicle: Klucel (hydroxypropylcellulose) (HPC)
  T/C: 118 % of control
dose: 800.0 mg/kg/injection, schedule: Q01DX005 (ip), vehicle: Klucel (hydroxypropylcellulose) (HPC)
  T/C: 117 % of control
dose: 1333.0 mg/kg/injection, schedule: Q01DX005 (ip), vehicle: Klucel (hydroxypropylcellulose) (HPC)
  T/C: 160 % of control

## CC1(C)N=C(N)N=C(N)N1CCCCc1ccccc1
dose: 6.25 mg/kg/injection, schedule: Q01DX005 (ip), vehicle: Klucel (hydroxypropylcellulose) (HPC)
  T/C: 110 % of control
dose: 12.5 mg/kg/injection, schedule: Q01DX005 (ip), vehicle: Klucel (hydroxypropylcellulose) (HPC)
  T/C: 114 % of control
dose: 25.0 mg/kg/injection, schedule: Q01DX005 (ip), vehicle: Klucel (hydroxypropylcellulose) (HPC)
  T/C: 118 % of control

## COC1OCN(C(C)(C)C)CC1(C)C (centres undefined)
dose: 15.0 mg/kg/injection, schedule: Q01DX009 (ip), vehicle: saline with Tween-80
  T/C: 95 % of control
dose: 30.0 mg/kg/injection, schedule: Q01DX009 (ip), vehicle: saline with Tween-80
  T/C: 102 % of control
dose: 60.0 mg/kg/injection, schedule: Q01DX009 (ip), vehicle: saline with Tween-80
  T/C: 121 % of control

## Cc1nn(-c2ccccc2)c2oc3ccc(Cl)cc3c(=O)c12
[2]
  T/C: 96 % of control
[4]
  T/C: 92 % of control

## NC1=C(O)C(=O)C(c2ccc3c(c2)CCC3)O1 (centres undefined)
[1]
  T/C: 91 % of control
[3]
  T/C: 87 % of control

## COc1ccc(/C=C/C(=O)C(CN(C)C)CN(C)C)cc1
dose: 1.56 mg/kg/injection, schedule: Q01DX005 (ip), vehicle: saline
  T/C: 109 % of control
dose: 3.12 mg/kg/injection, schedule: Q01DX005 (ip), vehicle: saline
  T/C: 96 % of control
dose: 6.25 mg/kg/injection, schedule: Q01DX005 (ip), vehicle: saline
  T/C: 106 % of control

## CC(C)=CC(=O)OC1C2C(C)=CC(O)C(O)C2(C)C2C3(O)OCC24C(CC(=O)OC14)C(C)C3O (centres undefined)
dose: 0.31 mg/kg/injection, schedule: Q01DX005 (ip), vehicle: distilled water + Tween-80
  T/C: 123 % of control
dose: 0.75 mg/kg/injection, schedule: Q01DX009 (ip), vehicle: saline with Tween-80
  T/C: 160 % of control
dose: 1.0 mg/kg/injection, schedule: Q01DX005 (ip), vehicle: distilled water + Tween-80
  T/C: 154 % of control
dose: 2.0 mg/kg/injection, schedule: Q01DX005 (ip), vehicle: distilled water + Tween-80
  T/C: 154 % of control
dose: 4.0 mg/kg/injection, schedule: Q01DX005 (ip), vehicle: distilled water + Tween-80
  T/C: 163 % of control
dose: 5.0 mg/kg/injection, schedule: Q01DX005 (ip), vehicle: distilled water + Tween-80
  T/C: 153 % of control
dose: 6.0 mg/kg/injection, schedule: Q01DX009 (ip), vehicle: saline with Tween-80
  T/C: 109 % of control

## CS(=O)(=O)C(CCC(=O)c1ccc([N+](=O)[O-])cc1)C(=O)c1ccccc1 (centres undefined)
[8]
  T/C: 98 % of control
[9]
  T/C: 96 % of control
[10]
  T/C: 104 % of control

## c1ccc2c3c(ccc2c1)OCCOCCOCCOc1ccc2ccccc2c1-3
dose: 100.0 mg/kg/injection, schedule: Q01DX001 (ip), vehicle: saline with Tween-80
  T/C: 98 % of control
dose: 200.0 mg/kg/injection, schedule: Q01DX001 (ip), vehicle: saline with Tween-80
  T/C: 92 % of control
dose: 400.0 mg/kg/injection, schedule: Q01DX001 (ip), vehicle: saline with Tween-80
  T/C: 87 % of control

## CCCCCCCCCCC(=O)CCCCC
dose: 100.0 mg/kg/injection, schedule: Q04DX003 (ip), vehicle: other
  T/C: 104 % of control
dose: 200.0 mg/kg/injection, schedule: Q04DX003 (ip), vehicle: other
  T/C: 109 % of control
dose: 400.0 mg/kg/injection, schedule: Q04DX003 (ip), vehicle: other
  T/C: 113 % of control

## CC1(C)CC(Nc2ccccc2)=CC(Nc2ccccc2)=N1
[8]
  T/C: 105 % of control
[9]
  T/C: 98 % of control
[10]
  T/C: 105 % of control

## CCCCCCCCCCCC[As](CCCCCCCCCCCC)SCC1OC(OC(C)=O)C(OC(C)=O)C(OC(C)=O)C1OC(C)=O (centres undefined)
[11]
  T/C: 111 % of control
[12]
  T/C: 104 % of control
[13]
  T/C: 105 % of control

## COc1cccc(N(CCO)C2CCCCC2)c1
dose: 100.0 mg/kg/injection, schedule: Q04DX003 (ip), vehicle: saline with Tween-80
  T/C: 100 % of control
dose: 200.0 mg/kg/injection, schedule: Q04DX003 (ip), vehicle: saline with Tween-80
  T/C: 90 % of control
dose: 400.0 mg/kg/injection, schedule: Q04DX003 (ip), vehicle: saline with Tween-80
  T/C: 88 % of control

## COc1ccc(CCNC(=O)Nc2ccc(C(C)(C)C)cc2)cc1OC
[14]
  T/C: 101 % of control
[15]
  T/C: 97 % of control
[16]
  T/C: 101 % of control

## CCCCCCCCCCCCCCCC(=O)NC1CC(OC2CC(O)(C(C)=O)Cc3c(O)c4c(c(O)c32)C(=O)c2c(OC)cccc2C4=O)OC(C)C1O (centres undefined)
dose: 0.75 mg/kg/injection, schedule: Q01DX009 (ip), vehicle: other
  T/C: 111 % of control
dose: 1.5 mg/kg/injection, schedule: Q01DX009 (ip), vehicle: other
  T/C: 98 % of control
dose: 3.0 mg/kg/injection, schedule: Q01DX009 (ip), vehicle: other
  T/C: 113 % of control

## CC(C)(C)OC(=O)NC(Cc1ccc(OCc2ccccc2)cc1)C(=O)O (centres undefined)
[14]
  T/C: 104 % of control
[15]
  T/C: 106 % of control
[16]
  T/C: 97 % of control

## CC1=NCc2c(nnn2C)N1
dose: 100.0 mg/kg/injection, schedule: Q01DX001 (ip), vehicle: Klucel (hydroxypropylcellulose) (HPC)
  T/C: 104 % of control
dose: 200.0 mg/kg/injection, schedule: Q01DX001 (ip), vehicle: Klucel (hydroxypropylcellulose) (HPC)
  T/C: 101 % of control

## [Se]=P(c1ccccc1)(N1CC1)N1CC1
dose: 25.0 mg/kg/injection, schedule: Q04DX003 (ip), vehicle: saline with Tween-80
  T/C: 108 % of control
dose: 50.0 mg/kg/injection, schedule: Q04DX003 (ip), vehicle: saline with Tween-80
  T/C: 109 % of control

## C=C(C)C(C)CC(NC(C)=O)C(=O)OC (centres undefined)
dose: 62.5 mg/kg/injection, schedule: Q04DX002 (ip), vehicle: Klucel (hydroxypropylcellulose) (HPC)
  T/C: 96 % of control
dose: 125.0 mg/kg/injection, schedule: Q04DX002 (ip), vehicle: Klucel (hydroxypropylcellulose) (HPC)
  T/C: 99 % of control
dose: 250.0 mg/kg/injection, schedule: Q04DX002 (ip), vehicle: Klucel (hydroxypropylcellulose) (HPC)
  T/C: 93 % of control

## [CH3][Ge]1([CH3])[CH2]C(c2ccccc2)=C(c2ccccc2)[CH2]1
[1]
  T/C: 99 % of control
[3]
  T/C: 94 % of control
[5]
  T/C: 90 % of control

## COc1ccc(C(=O)c2c(C(=O)NOCCCc3ccccc3)[nH]c(=O)c(C#N)c2C(=O)NOCCCc2ccccc2)cc1
dose: 30.0 mg/kg/injection, schedule: Q01DX005 (ip), vehicle: saline with Tween-80
  T/C: 102 % of control
[6]
  T/C: 105 % of control
[2]
  T/C: 109 % of control
[7]
  T/C: 96 % of control

## CCn1c2ccccc2c2cc(NS(=O)(=O)c3ccccc3)ccc21
[11]
  T/C: 103 % of control
[12]
  T/C: 103 % of control
[13]
  T/C: 100 % of control
